From US10696678B2, “Kinase inhibitor, and preparing method and pharmaceutical use thereof” (GAN & LEE PHARMACEUTICALS, priority 2015, dated 2020) come the findings set out here.

Where two headings read alike, the source gives them in different places.

Test [1] concerns human breast cancer cell line MDB-MA-231. Kind of test: Proliferation inhibition assay on human breast cancer cell line MDA-MB-231 (DAPI staining, In Cell Analyzer). The class given is cell-based. The procedure:
Experimental Preparation:
1. MDA-MB-231 cells were seeded at 4000 cells/100 ul/well to a 96-well plate with black transparent bottom, and cultured overnight at 37° C.;
3. Fixation: the cell plate was taken, medium was removed, and 50 μl of 4% paraformaldehyde was added to each well and fixed 10 min;
4.50 μl 0.1 M glycine was added to neutralize for 10 min;
6. Permeabilization: 50 ul of 0.2% TritonX-100 was added to each well and permeabilized at room temperature for 10 min;
8.5 mg/mL DAPI stock solution was diluted at 1:5000 (final concentration 1 μg/ml) and the cells were stained at room temperature for 20 min.
10. The plate was scanned and analyzed on In cell analyser.

Test [2] has as its target CDK4/D3 (Homo sapiens (Human), UniProt P11802). Kind of test: CDKs inhibition assay (ADP-Glo Kinase Assay), CDK4.
Description: (2) Preparation of Test Compound:
(§1) a. Test compounds at a certain concentration were taken respectively, and diluted with kinase reaction buffer I to compound solutions with a final concentration of 50 μM;
(§2) 4. Preparation of reaction substrate and ATP mixed solution:
a. Preparation of ATP solution:
(§3) 200 μl of 0.1 mM ATP solution: 2 μl of 10 mM ATP was added into 198 μl kinase reaction buffer I;
(§4) 300 μl of 50 μl M ATP solution: 150 μl kinase reaction buffer I was added into 150 μl of above-mentioned 0.1 mM ATP solution;
(§5) b. Preparation of 300 μl reaction substrate solution:
(§6) 150 μl of 1 μg/μl reaction substrate stock solution was added into 150 μl kinase reaction buffer I and uniformly mixed;
(§7) c. Above-mentioned a/b solutions were mixed to obtain mixed solutions respectively.
(§8) 2 μl compound solution at each concentration was added into a 384-well plate respectively, and centrifuged for 3 min;
(§9) 4 μl kinase solution was added into each well, centrifuged at 5000 rpm for 10 min at 18° C., and shaked well for 10 min on a shaker;
(§10) 4 μl substrate and ATP mixed solution were added into each well, centrifuged at 5000 rpm for 10 min at 18° C., and shaked well for 90 min on a shaker at 37° C.;
(§11) The 384 well plate was removed and allow to achieve room temperature;
(§12) 10 μl ADP-Glo reagent was added into each well, centrifuged at 5000 rpm for 10 min at 18° C., and shaked well for 40 min on a shaker at 25° C. to terminate the reaction;
(§13) 20 μl kinase assay reagent was added into each well, centrifuged at 5000 rpm for 10 min at 18° C., and shaked well for 30 min on a shaker at 25° C.;
(§14) Fluorescence values were read by M1000pro microplate reader.
(§15) The inhibition rate of each compound at each concentration point was calculated according to the following equation, and IC50 value was calculated by curve fitting using GraphPad Prism 5 software.
Test [3] concerns the target CDK6/D3 (Homo sapiens (Human), UniProt Q00534). Kind of test: CDKs inhibition assay (ADP-Glo Kinase Assay), CDK6.
Description: (2) Preparation of Test Compound:
as §1, §2
a. Preparation of ATP solution:
as §3, §4, §5, §6, §7, §8, §9, §10, §11, §12, §13, §14, §15
In test [4] the target is CDK1/A2 (Homo sapiens (Human), UniProt P06493). Kind of test: CDKs inhibition assay (ADP-Glo Kinase Assay), CDK1. The note with it: read-out: IC50 (nM) CDK1/A2. On the technique in general: ADP-Glo turns the ADP formed in a reaction into a luminescent signal.
Description: (2) Preparation of Test Compound:
as §1, §2
a. Preparation of ATP solution:
as §3, §4, §5, §6, §7, §8, §9, §10, §11, §12, §13, §14, §15
[5] abbreviates: MDA-MB-231, 72 h, read-out: IC50 for inhibition of proliferation of human breast cancer cell line MDB-MA-231.
Setting [6] is: MDA-MB-231, read-out: IC50 for inhibition of proliferation of human breast cancer cell line MDB-MA-231, 72 h incubation.

Take `Fc1cnc(Nc2ccc(N3CCNCC3)cn2)nc1-c1cc(F)c2nc3n(c2c1)CCCC3` [Example 13, 5-Fluoro-4-(6-fluoro-1,2,3,4-tetrahydrobenzo[4,5]imidazo[1,2-a]pyridin-8-yl)-N-(5-(piperazin-1-yl)pyridin-2-yl)pyrimidin-2-amine]: the IC50 in test [1] (setting [5]) was 1170 nM; in test [2], 18 nM; in test [3], 62.7 nM.

`O=C(CO)N1CCc2nc(Nc3ncc(F)c(-c4cc(F)c5nc6n(c5c4)CCCC6)n3)ccc2C1` [Example 15, 1-(2-((5-Fluoro-4-(6-fluoro-1,2,3,4-tetrahydrobenzo[4,5]imidazo[1,2-a]pyridin-8-yl)pyrimidin-2-yl)amino)-7,8-dihydro-1,6-naphthyridin-6(5H)-yl)-2-hydroxyethan-1-one]: the IC50 in test [1] (setting [5]) came to 1230 nM; in test [2] it was 28 nM; in test [3], 68.6 nM.

In test [3], `CC1(C)CCc2nc3c(F)cc(-c4nc(Nc5ccc6c(n5)CCN(C(=O)CO)C6)ncc4F)cc3n21` [Example 21, 1-(2-((5-Fluoro-4-(5-fluoro-1,1-dimethyl-2,3-dihydro-1H-benzo[d]pyrrolo[1,2-a]imidazol-7-yl)pyrimidin-2-yl)amino)-7,8-dihydro-1,6-naphthyridin-6(5H)-yl)-2-hydroxyethan-1-one] registered an IC50 of 17.6 nM.

Take `CC1(C)CCc2nc3c(F)cc(-c4ccnc(Nc5ccc(N6CCNCC6)cn5)n4)cc3n21` [Example 23, 4-(5-Fluoro-1,1-dimethyl-2,3-dihydro-1H-benzo[d]pyrrolo[1,2-a]imidazol-7-yl)-N-(5-(piperazin-1-yl)pyridin-2-yl)pyrimidin-2-amine]: the IC50 in test [1] (setting [6]) is 543 nM; in test [3] it was 90 nM.

Turning to `CC1(C)CCc2nc3c(F)cc(-c4nc(Nc5ccc(C6CCNCC6)cn5)ncc4F)cc3n21` [Example 26], the IC50 in test [1] (setting [6]) is 214 nM.

Turning to `Cc1nc(Nc2ncc(F)c(-c3cc(F)c4nc5n(c4c3)C(C)(C)CC5)n2)ccc1N1CCNCC1` [Example 31], the IC50 in test [1] (setting [6]) amounted to 129 nM; in test [2], 2 nM; in test [3], 55 nM.

As for `CCN1CCN(C(=O)c2ccc(Nc3ncc(F)c(-c4cc(F)c5nc6n(c5c4)C(C)(C)CC6)n3)nc2)CC1` [Example 32, (4-Ethylpiperazin-1-yl)(6-((5-fluoro-4-(5-fluoro-1,1-dimethyl-2,3-dihydro-1H-benzo[d]pyrrolo[1,2-a]imidazol-7-yl)pyrimidin-2-yl)amino)pyridin-3-yl)methyl ketone], the IC50 in test [1] (setting [6]) is 579 nM; in test [2], 49 nM; in test [3], 13 nM.

Consider `CCN1CCC(Oc2ccc(Nc3ncc(F)c(-c4cc(F)c5nc6n(c5c4)C(C)(C)CC6)n3)nc2)CC1` [Example 33, N-(5-((1-Ethylpiperidine-4-yl)oxy)pyridin-2-yl)-5-fluoro-4-(5-fluoro-1,1-dimethyl-2,3-dihydro-1H-benzo[d]pyrrolo[1,2-a]imidazol-7-yl)pyrimidin-2-amine], for which the IC50 in test [1] (setting [6]) worked out at 20 nM; in test [2], 3.2 nM; in test [3], 7.6 nM.

As to `CC1(C)CCc2nc3c(F)cc(-c4nc(Nc5ccc(OC6CCNCC6)cn5)ncc4F)cc3n21` [Example 34, 5-Fluoro-4-(5-fluoro-1,1-dimethyl-2,3-dihydro-1H-benzo[d]pyrrolo[1,2-a]imidazol-7-yl)-N-(5-(piperidine-4-yloxy)pyridin-2-yl)pyrimidin-2-amine], the IC50 came out at 35 nM in test [1] (setting [6]), 3.9 nM in test [2] and 3.8 nM in test [3].

As for `CCN1CCC(c2ccc(Nc3ncc(F)c(-c4cc(F)c5nc6n(c5c4)C(C)(C)CC6)n3)nc2)CC1` [Example 45, N-(5-(1-Ethylpiperidine-4-yl)pyridin-2-yl)-5-fluoro-4-(5-fluoro-1,1-dimethyl-2,3-dihydro-1H-benzo[d]pyrrolo[1,2-a]imidazol-7-yl)pyrimidin-2-amine], the IC50 worked out at 30 nM in test [1] (setting [5]), 7 nM in test [2] and 21.7 nM in test [3].

Consider `C[C@H]1CN(Cc2ccc(Nc3ncc(F)c(-c4cc(F)c5nc6n(c5c4)C(C)(C)CC6)n3)nc2)CCN1C` [Example 47, (S)—N-(5-((3,4-Dimethylpiperazin-1-yl)methyl)pyridin-2-yl)-5-fluoro-4-(5-fluoro-1,1-dimethyl-2,3-dihydro-1H-benzo[d]pyrrolo[1,2-a]imidazol-7-yl)pyrimidin-2-amine], for which the figures for the IC50 in test [4], in test [2] and in test [3] were 745 nM, 2.4 nM and 3 nM, respectively. Moreover, the “selectivity for CDK4/6 (over CDK1) compared with the control compound LY2835219” value in test [2] (in words) was “better selectivity for CDK4/6 than the control compound”. In test [2] (smaller value = better selectivity for CDK4), the “Ratio IC50 (CDK4)/IC50 (CDK1)” value is 0.003. Also, in test [3] (smaller value = better selectivity for CDK6), the “Ratio IC50 (CDK6)/IC50 (CDK1)” value is on record as 0.004.

Take `CC1Cc2nc3c(F)cc(-c4nc(Nc5ccc(N6CCNCC6)cn5)ncc4F)cc3n2C1` (stereo not drawn) [Example 50, 5-Fluoro-4-(5-fluoro-2-methyl-2,3-dihydro-1H-benzo[d]pyrrolo[1,2-a]imidazol-7-yl)-N-(5-(piperazin-1-yl)pyridin-2-yl)pyrimidin-2-amine]: the figures for the IC50 in test [1] (setting [6]), in test [2] and in test [3] were 3650 nM, 17.6 nM and 368 nM, respectively.

For the compound `CCC1Cc2nc3c(F)cc(-c4nc(Nc5ccc(N6CCNCC6)cn5)ncc4F)cc3n2C1` (stereo not drawn) [Example 52, 4-(2-Ethyl-5-fluoro-2,3-dihydro-1H-benzo[d]pyrrolo[1,2-a]imidazol-7-yl)-5-fluoro-N-(5-(piperazin-1-yl)pyridin-2-yl)pyrimidin-2-amine], the IC50 in test [1] (setting [6]) came to 1680 nM; in test [2], 60.7 nM; in test [3] it was 144 nM.

As to `CCC1CCc2nc3c(F)cc(-c4nc(Nc5ccc(N6CCNCC6)cn5)ncc4F)cc3n21` (stereo not drawn) [Example 54, 4-(1-Ethyl-5-fluoro-2,3-dihydro-1H-benzo[d]pyrrolo[1,2-a]imidazol-7-yl)-5-fluoro-N-(5-(piperazin-1-yl)pyridin-2-yl)pyrimidin-2-amine], the IC50 in test [1] (setting [6]) was determined as 252 nM; in test [2], 19 nM; in test [3], 9.6 nM.

Turning to `CC1(C)Cc2nc3c(F)cc(-c4nc(Nc5ccc(N6CCNCC6)cn5)ncc4F)cc3n2C1` [Example 55, 5-Fluoro-4-(5-fluoro-2,2-dimethyl-2,3-dihydro-1H-benzo[d]pyrrolo[1,2-a]imidazol-7-yl)-N-(5-(piperazin-1-yl)pyridin-2-yl)pyrimidin-2-amine], in test [4], the IC50 came to 6240 nM.

As to `CC1CCc2nc3c(F)cc(-c4nc(Nc5ccc6c(n5)CCN(C(=O)CO)C6)ncc4F)cc3n21` (stereo not drawn) [Example 58, 1-(2-((5-Fluoro-4-(5-fluoro-1-methyl-2,3-dihydro-1H-benzo[d]pyrrolo[1,2-a]imidazol-7-yl)pyrimidin-2-yl)amino)-7,8-dihydro-1,6-naphthyridin-6(5H)-yl)-2-hydroxyethan-1-one], the IC50 in test [1] (setting [6]) amounted to 458 nM; in test [2] it was 28 nM; in test [3] it was 47.3 nM.

For `CC1CCc2nc3c(F)cc(-c4nc(Nc5ccc(C6CCNCC6)cn5)ncc4F)cc3n21` (stereo not drawn) [Example 61], the IC50 in test [1] (setting [6]) worked out at 1530 nM; in test [2], 3.9 nM; in test [3] it was 80 nM.

Regarding `Cc1nc(Nc2ncc(F)c(-c3cc(F)c4nc5n(c4c3)C(C)CC5)n2)ccc1CC1CCNCC1` (stereo not drawn) [Example 62, 5-Fluoro-4-(5-fluoro-1-methyl-2,3-dihydro-1H-benzo[d]pyrrolo[1,2-a]imidazol-7-yl)-N-(6-methyl-5-(piperidine-4-methylene)pyridin-2-yl)pyrimidin-2-amine], the IC50 in test [1] (setting [6]) stood at 1320 nM; in test [2], 1.7 nM; in test [3] it was 34 nM.

For `CC1CCc2nc3c(F)cc(-c4nc(Nc5ccc(C6CCN(C)CC6)cn5)ncc4F)cc3n21` (stereo not drawn) [Example 66], the figures for the IC50 in test [2] and in test [3] were 4.3 nM and 21.4 nM, respectively.

For the compound `CCC1CCc2nc3c(F)cc(-c4nc(Nc5ccc(C6CCN(C)CC6)cn5)ncc4F)cc3n21` (stereo not drawn) [Example 68, 4-(1-Ethyl-5-fluoro-2,3-dihydro-1H-benzo[d]pyrrolo[1,2-a]imidazolel-7-yl)-5-fluoro-N-(5-(1-methylpiperidine-4-yl)pyridin-2-yl)pyrimidin-2-amine], the IC50 was found to be 9 nM in test [2] and 6 nM in test [3].

In the case of `CCN1CCC(c2ccc(Nc3ncc(F)c(-c4cc(F)c5nc6n(c5c4)C(C)CC6)n3)nc2)CC1` (stereo not drawn) [Example 69, N-(5-(1-Ethylpiperidine-4-yl)pyridin-2-yl)-5-fluoro-4-(5-fluoro-1-methyl-2,3-dihydro-1H-benzo[d]pyrrolo[1,2-a]imidazol-7-yl)pyrimidin-2-amine], the IC50 in test [2] turned out to be 40 nM; in test [3] it was 24.4 nM.

For `CN(C)C1CCN(c2ccc(Nc3ncc(F)c(-c4cc(F)c5nc6n(c5c4)C(C)(C)CC6)n3)nc2)CC1` [Example 71, N-(5-(4-(Dimethylamino)piperidine-1-yl)pyridin-2-yl)-5-fluoro-4-(5-fluoro-1,1-dimethyl-2,3-dihydro-1H-benzo[d]pyrrolo[1,2-a]imidazol-7-yl)pyrimidin-2-amine], the values for the IC50 in test [1] (setting [6]), in test [2] and in test [3] were 46 nM, 1 nM and 14 nM, respectively.

As to `CC1CCc2nc3c(F)cc(-c4ccnc(Nc5ccc(N6CCNCC6)cn5)n4)cc3n21` (stereo not drawn) [Example 72, 4-(5-Fluoro-1-methyl-2,3-dihydro-1H-benzo[d]pyrrolo[1,2-a]imidazol-7-yl)-N-(5-(piperazin-1-yl)pyridin-2-yl)pyrimidin-2-amine], in test [4], the IC50 worked out at 693 nM.
